The species entered for series [1] is Mus musculus. The experiment in a line: Protective index, ratio of TD50 to ED50 in Swiss albino Mus musculus (mouse).
Series [2] concerns Mus musculus. The series can be described thus: Anticonvulsant activity in ip dosed Swiss albino Mus musculus (mouse) assessed as protection against PTZ-induced seizures administered 30 min prior to PTZ-challenge. Format: functional.
The subject of series [3] is Mus musculus. The series can be described thus: Anticonvulsant activity in Swiss albino Mus musculus (mouse) assessed as protection against PTZ-induced seizures at 0.8 mmol/kg, i.p. administered 30 min prior to PTZ-challenge relative to control. Format: functional.
For series [4], the system named is Mus musculus. The experiment in a line: Anticonvulsant activity in Swiss albino Mus musculus (mouse) assessed as protection against Maximal electric shock-induced seizures at 0.8 mmol/kg, ip administered 30 min prior to electric shock-challenge relative to control. The series is classed as functional.
A short description of series [5]: Neurotoxicity in ip dosed Swiss albino Mus musculus (mouse) after 4 hr by rotarod test. The series is classed as toxicity, organism-based. The settings on record: in vivo. In general terms: The rotarod test checks motor coordination on a turning rod.
For series [6], the system named is Mus musculus. The series can be described thus: Anticonvulsant activity in Swiss albino Mus musculus (mouse) assessed as protection against Maximal electric shock-induced seizures at 0.5 mmol/kg, ip administered 30 min prior to electric shock-challenge relative to control. The series is classed as functional.
Series [7] deals with Mus musculus. The series can be described thus: Anticonvulsant activity in Swiss albino Mus musculus (mouse) assessed as protection against PTZ-induced seizures at 0.5 mmol/kg, i.p. administered 30 min prior to PTZ-challenge relative to control. Format: functional.
The nature of series [8]: Toxicity in ip dosed Swiss albino Mus musculus (mouse) assessed as mortality. Format: organism-based. The settings on record: in vivo.
A short description of series [9]: Therapeutic index, ratio of LD50 to ED50 in Swiss albino Mus musculus (mouse). Format: organism-based. The settings on record: in vivo, read-out: Ratio LD50/ED50.
Series [10] concerns Mus musculus. The experiment in a line: Anticonvulsant activity in Swiss albino Mus musculus (mouse) assessed as protection against PTZ-induced seizures at 1.8 mmol/kg, i.p. administered 30 min prior to PTZ-challenge relative to control. The series is classed as functional.
In series [11] the test system is Mus musculus. The series can be described thus: Anticonvulsant activity in Swiss albino Mus musculus (mouse) assessed as protection against Maximal electric shock-induced seizures at 1.8 mmol/kg, ip administered 30 min prior to electric shock-challenge relative to control. The series is classed as functional.

With `Cc1ccccc1-n1c(C)nc2ccccc2c1=O` [METHAQUALONE], in [1], the “Ratio TD50/ED50” value is listed as 2. Further, in series [2], the ED50 is 200 mg/kg. The Activity in series [3] and in series [4] was 100% in each case. In addition, the TD50 at 4 h in [5] stood at 400 mg/kg.
Regarding `Cc1nc2c(I)cc(I)cc2c(=O)n1Cc1ccccc1`, the values for the Activity in series [6] and in series [7] were 50% and 66%, respectively.
`Cc1nc2c(I)cc(I)cc2c(=O)n1Cc1ccc(F)cc1`: the “Ratio TD50/ED50” value in series [1] is listed as 2.25. The LD50 in series [8] amounted to 420 mg/kg. Further, the ED50 in series [2] was determined as 160 mg/kg. Moreover, the selectivity ratio in series [9] is 2.62. In addition, the Activity in series [6] and in series [7] was 100% in each case. Besides, the TD50 at 4 h in [5] was found to be 360 mg/kg.
For `CCCC(CCC)C(=O)[O-].[Na+]` [VALPROATE SODIUM], the Activity in series [10] and in series [11] was 100% each time. In series [2], the ED50 is 300 mg/kg. Further, in series [5], the TD50 at 4 h was 450 mg/kg.
For `Cc1nc2ccccc2c(=O)n1Cc1ccc(Br)cc1`, the Activity in [6] and in series [7] was 66% in each case.
In the case of `Cc1nc2c(I)cc(I)cc2c(=O)n1Cc1cccc(C(F)(F)F)c1`, the Activity in series [6] is given as 33%; in [7] it was 50%.
In the case of `Cc1ccc(Cn2c(C)nc3c(I)cc(I)cc3c2=O)cc1`, the Activity was 33% in [6] and 50% in series [7].
Regarding `Cc1nc2c(I)cc(I)cc2c(=O)n1Cc1ccc(Cl)c(Cl)c1`, the Activity in [6] and in series [7] was 66% throughout.
With `Cc1nc2c(I)cc(I)cc2c(=O)n1Cc1ccc(Cl)cc1`, the “Ratio TD50/ED50” value in series [1] stood at 1.87. For the same compound, in series [8], the median lethal dose (LD50) turned out to be 600 mg/kg. Moreover, the ED50 in series [2] turned out to be 150 mg/kg. Further, in series [9], the selectivity ratio amounted to 4. The Activity in series [6] and in series [7] was 100% in each case. Besides, the TD50 at 4 h in [5] is 280 mg/kg.
Consider `Cc1nc2c(I)cc(I)cc2c(=O)n1Cc1cccc([N+](=O)[O-])c1`, for which the Activity in series [6] stood at 66%; in series [7] it was 100%.
For `COc1ccc(Cn2c(C)nc3c(I)cc(I)cc3c2=O)cc1`, the values for the Activity in series [6] and in series [7] were 33% and 66%, respectively.
For `Cc1nc2c(I)cc(I)cc2c(=O)n1Cc1cccc(Cl)c1`, in that order: 66% and 100%.
In the case of `Cc1nc2c(I)cc(I)cc2c(=O)n1Cc1ccc(I)cc1`, the Activity in series [6] and in series [7] was 66% each time.
As for `Cc1nc2c(I)cc(I)cc2c(=O)n1-c1ccc(Br)cc1`, the Activity in [6] is 66%; in [7] it was 100%.
In the case of `Cc1nc2c(I)cc(I)cc2c(=O)n1Cc1ccc(Br)cc1`, the “Ratio TD50/ED50” value in series [1] was 2.39. For the same compound, in series [8], the LD50 came out at 565 mg/kg. In addition, the ED50 in series [2] was 138 mg/kg. The selectivity ratio in series [9] amounted to 4.09. The Activity in [6] and in [7] was 100% in each case. In series [5], this compound had a TD50 at 4 h of 330 mg/kg.
For the compound `Cc1nc2ccc(I)cc2c(=O)n1Cc1ccc(Br)cc1`, the Activity in series [6] and in series [7] was 66% throughout.

By ED50 is commonly meant the midpoint of the dose-response relation. One may read the TD50 as the dose at which the toxic effect under study appears in half of the subjects. A higher TD50 goes with harm only at a large dose. The term LD50 denotes the dose expected to kill half of the subjects tested.

The values are drawn from ChEMBL document CHEMBL3045875, “Design, synthesis, and biological evaluation studies of novel quinazolinone derivatives as anticonvulsant agents” (Med Chem Res, 2013).
